# Laboratory results published in ChEMBL document CHEMBL1201862, “PubChem BioAssay data set” (2004).
#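 How tested: cells in 96-well plates exposed to compound for 48 hours at five concentrations. At the GI50, growth is halved.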 Active and inactive are the calls of the source. Rule as the data show it: active = GI50 up to about 1.1 µM and inactive = higher.
# Experiments:
# Test in all cases: growth of human tumour cells (NCI), 48 h
# KM12 = test system: KM12
# IGROV-1 = test system: IGROV-1
# LOX IMVI = test system: LOX IMVI
# SF-295 = test system: SF-295
# NCI-H522 = test system: NCI-H522
# UO-31 = test system: UO-31
# SK-MEL-5 = test system: SK-MEL-5
# OVCAR-4 = test system: OVCAR-4
# COLO 205 = test system: COLO 205
# NCI-H460 = test system: NCI-H460
# T47D = test system: T47D
# M14 = test system: M14
# SF-268 = test system: SF-268
# OVCAR-3 = test system: OVCAR-3
# NCI-H23 = test system: NCI-H23
# NCI/ADR-RES = test system: NCI/ADR-RES
# TK-10 = test system: TK-10
# HCT-15 = test system: HCT-15
# RXF 393 = test system: RXF 393
# HL-60 = test system: HL-60
# 786-0 = test system: 786-0
# DU-145 = test system: DU-145
# A549 = test system: A549
# MDA-MB-231 = test system: MDA-MB-231
# UACC-62 = test system: UACC-62
# MOLT-4 = test system: MOLT-4
# Hs-578T = test system: Hs-578T
# CAKI-1 = test system: CAKI-1
# CCRF-CEM = test system: CCRF-CEM
# Malme-3M = test system: Malme-3M
# SK-MEL-2 = test system: SK-MEL-2
# PC-3 = test system: PC-3
# SK-OV-3 = test system: SK-OV-3
# SNB-19 = test system: SNB-19
# MDA-N = test system: MDA-N
# U-251 = test system: U-251
# SN12C = test system: SN12C
# HT-29 = test system: HT-29
# RPMI-8226 = test system: RPMI-8226
# OVCAR-5 = test system: OVCAR-5
# ACHN = test system: ACHN
# A498 = test system: A498
# MCF7 = test system: MCF7
# UACC-257 = test system: UACC-257
# SF-539 = test system: SF-539
# SK-MEL-28 = test system: SK-MEL-28
# HOP-62 = test system: HOP-62
# HCT-116 = test system: HCT-116
# NCI-H226 = test system: NCI-H226
# EKVX = test system: EKVX
# SW-620 = test system: SW-620
# SNB-75 = test system: SNB-75
# MDA-MB-435 = test system: MDA-MB-435
# HCC 2998 = test system: HCC 2998
# HOP-92 = test system: HOP-92
# OVCAR-8 = test system: OVCAR-8
# K562 = test system: K562
# BT-549 = test system: BT-549
smiles,measurement,setting,value
O=C(Nc1ccccc1)OCCN=C1c2ccccc2C(Br)C(Br)c2ccccc21 (configuration not stated),GI50,KM12,13.2 µM (inactive)
same,GI50,IGROV-1,6.52 µM (inactive)
same,GI50,LOX IMVI,5.08 µM (inactive)
same,GI50,SF-295,17.1 µM (inactive)
same,GI50,NCI-H522,5.37 µM (inactive)
same,GI50,UO-31,2.02 µM (inactive)
same,GI50,SK-MEL-5,12.3 µM (inactive)
same,GI50,OVCAR-4,5.38 µM (inactive)
same,GI50,COLO 205,4.94 µM (inactive)
same,GI50,NCI-H460,12.1 µM (inactive)
same,GI50,T47D,8.69 µM (inactive)
same,GI50,M14,4.34 µM (inactive)
same,GI50,SF-268,10.5 µM (inactive)
same,GI50,OVCAR-3,6.12 µM (inactive)
same,GI50,NCI-H23,10.4 µM (inactive)
same,GI50,NCI/ADR-RES,11.7 µM (inactive)
same,GI50,TK-10,4.48 µM (inactive)
same,GI50,HCT-15,3.85 µM
same,GI50,RXF 393,3.93 µM (inactive)
same,GI50,HL-60,1.92 µM (inactive)
same,GI50,786-0,2.82 µM (inactive)
same,GI50,DU-145,9.16 µM (inactive)
same,GI50,A549,16 µM (inactive)
same,GI50,MDA-MB-231,15.2 µM (inactive)
same,GI50,UACC-62,11 µM (inactive)
same,GI50,MOLT-4,2.01 µM (inactive)
same,GI50,Hs-578T,12.4 µM (inactive)
same,GI50,CAKI-1,6.49 µM (inactive)
same,GI50,CCRF-CEM,1.49 µM (inactive)
same,GI50,Malme-3M,6.15 µM (inactive)
same,GI50,SK-MEL-2,22.2 µM (inactive)
same,GI50,PC-3,19.3 µM (inactive)
same,GI50,SK-OV-3,15.7 µM (inactive)
same,GI50,SNB-19,14.9 µM (inactive)
same,GI50,MDA-N,3.82 µM (inactive)
same,GI50,U-251,8.45 µM (inactive)
same,GI50,SN12C,11.1 µM (inactive)
same,GI50,HT-29,5.25 µM (inactive)
same,GI50,RPMI-8226,4.37 µM (inactive)
same,GI50,OVCAR-5,16 µM (inactive)
same,GI50,ACHN,10.2 µM (inactive)
same,GI50,A498,13.2 µM (inactive)
same,GI50,MCF7,5.68 µM (inactive)
same,GI50,UACC-257,6.59 µM (inactive)
same,GI50,SF-539,5.07 µM (inactive)
same,GI50,SK-MEL-28,9.06 µM (inactive)
same,GI50,HOP-62,15.1 µM (inactive)
same,GI50,HCT-116,3.88 µM (inactive)
same,GI50,NCI-H226,12.6 µM (inactive)
same,GI50,EKVX,10 µM (inactive)
same,GI50,SW-620,4.43 µM (inactive)
same,GI50,SNB-75,13.3 µM (inactive)
same,GI50,MDA-MB-435,7.93 µM (inactive)
same,GI50,HCC 2998,14.8 µM (inactive)
same,GI50,HOP-92,8.81 µM (inactive)
same,GI50,OVCAR-8,4.09 µM (inactive)
same,GI50,K562,2.8 µM (inactive)
CCC(=O)OCN1C(=O)C=CC1=O,GI50,KM12,16.7 µM (inactive)
same,GI50,IGROV-1,18.4 µM (inactive)
same,GI50,LOX IMVI,18.5 µM (inactive)
same,GI50,SF-295,> 44.7 µM (inactive)
same,GI50,NCI-H522,1.91 µM (inactive)
same,GI50,UO-31,7.91 µM (inactive)
same,GI50,SK-MEL-5,27.5 µM (inactive)
same,GI50,OVCAR-4,17.6 µM (inactive)
same,GI50,COLO 205,4.28 µM (inactive)
same,GI50,NCI-H460,18.6 µM (inactive)
same,GI50,M14,18.3 µM (inactive)
same,GI50,SF-268,17.1 µM (inactive)
same,GI50,OVCAR-3,7.16 µM (inactive)
same,GI50,NCI-H23,18 µM (inactive)
same,GI50,NCI/ADR-RES,24 µM (inactive)
same,GI50,TK-10,6.21 µM (inactive)
same,GI50,HCT-15,22.9 µM
same,GI50,RXF 393,16.2 µM (inactive)
same,GI50,HL-60,7.19 µM (inactive)
same,GI50,786-0,5.38 µM (inactive)
same,GI50,DU-145,16.6 µM (inactive)
same,GI50,A549,18.7 µM (inactive)
same,GI50,MDA-MB-231,18.7 µM (inactive)
same,GI50,UACC-62,17 µM (inactive)
same,GI50,MOLT-4,2.3 µM (inactive)
same,GI50,Hs-578T,10.1 µM (inactive)
same,GI50,CAKI-1,5.08 µM (inactive)
same,GI50,CCRF-CEM,0.445 µM (active)
same,GI50,Malme-3M,13.8 µM (inactive)
same,GI50,SK-MEL-2,15.7 µM (inactive)
same,GI50,PC-3,17.1 µM (inactive)
same,GI50,SK-OV-3,> 43.1 µM (inactive)
same,GI50,SNB-19,18.5 µM (inactive)
same,GI50,MDA-N,16.9 µM (inactive)
same,GI50,BT-549,18.5 µM (inactive)
same,GI50,U-251,17.6 µM (inactive)
same,GI50,SN12C,18.4 µM (inactive)
same,GI50,HT-29,17.9 µM (inactive)
same,GI50,OVCAR-5,18.2 µM (inactive)
same,GI50,ACHN,8.2 µM (inactive)
same,GI50,A498,> 44.5 µM (inactive)
same,GI50,MCF7,20.1 µM (inactive)
same,GI50,UACC-257,9.06 µM (inactive)
same,GI50,SF-539,18.3 µM (inactive)
same,GI50,SK-MEL-28,18.6 µM (inactive)
same,GI50,HOP-62,17.8 µM (inactive)
same,GI50,HCT-116,16.2 µM (inactive)
same,GI50,NCI-H226,41.9 µM (inactive)
same,GI50,EKVX,19.8 µM (inactive)
same,GI50,SW-620,2.01 µM (inactive)
same,GI50,MDA-MB-435,15.2 µM (inactive)
same,GI50,HCC 2998,18.6 µM (inactive)
same,GI50,HOP-92,15.2 µM (inactive)
same,GI50,OVCAR-8,18.3 µM (inactive)
same,GI50,K562,3.26 µM (inactive)
